Our source for the EC50 and IC50 values is patent US10336762B2 (priority 2017, dated 2019).

Like-named read-outs stand apart in the source and are kept apart here.

The subject of one test is TNFα. The test is described as follows: cells. It counts as cell-based, human. To be noted: LPS-stimulated human monocytes, read-out: EC50 TNF.
A further test concerns the target IRAK4 enzyme (Homo sapiens (Human), UniProt Q9NWZ3). Kind of test: biochemical. Type of test: biochemical. The following applies: IRAK4 enzyme, 500 μM ATP.
Setting [1] is: Homo sapiens, Monocyte, TNFα content.

Chain of IRAK4 enzyme (Q9NWZ3 whole entry): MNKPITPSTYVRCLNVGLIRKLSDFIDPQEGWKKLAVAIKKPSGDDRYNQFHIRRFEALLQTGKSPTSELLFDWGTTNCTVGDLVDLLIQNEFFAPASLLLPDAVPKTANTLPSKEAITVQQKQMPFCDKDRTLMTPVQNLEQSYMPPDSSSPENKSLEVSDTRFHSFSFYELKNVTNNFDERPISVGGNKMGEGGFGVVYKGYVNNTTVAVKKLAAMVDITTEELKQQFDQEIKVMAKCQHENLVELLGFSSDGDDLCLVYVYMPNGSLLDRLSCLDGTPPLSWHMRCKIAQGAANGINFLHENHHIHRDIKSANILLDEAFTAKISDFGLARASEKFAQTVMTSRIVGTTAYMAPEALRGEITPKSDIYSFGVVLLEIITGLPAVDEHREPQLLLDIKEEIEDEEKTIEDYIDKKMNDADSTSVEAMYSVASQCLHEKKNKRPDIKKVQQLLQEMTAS

The term EC50 denotes the concentration that produces a half-maximal response. Take “6-(3-cyanopyrrolo[1,2- b]pyridazin-7-yl)-N-((R)- 2-fluoro-3-hydroxy-3- methylbutyl)-4-(((1s,3S)-3- hydroxyadamantan-1- yl)amino)nicotinamide [Example 525]”: the EC50 in the test with TNFα (TNFα content) amounted to 11 nM.
Take “6-(3-cyanopyrrolo[1,2-b]pyridazin-7-yl)-N-(2-(hydroxymethyl)cyclopropyl)-4-(isopropylamino)nicotinamide [Example 19]”: in the test with TNFα (TNFα content), the concentration giving a half-maximal response (EC50) is 926 nM.
In general, IC50 refers to the concentration that inhibits the measured activity by half. A higher IC50 goes with lower potency. As for `CC(C)Nc1cc(-c2ccc3cc(C#N)cnn23)ncc1C(=O)NC1CC1CO` (single isomer, unassigned) [Example 18, 6-(3-cyanopyrrolo[1,2-b]pyridazin-7-yl)-N-(2-(hydroxymethyl)cyclopropyl)-4-(isopropylamino)nicotinamide], in the test with TNFα (setting [1]), the EC50 is 757 nM. Further, the half-maximal inhibitory concentration (IC50) at IRAK4 enzyme (TR-FRET) stood at 9 nM.
Regarding `CC(C)(O)[C@H](F)CNC(=O)c1cnc(-c2ccc3cc(C#N)cnn23)cc1NC1C2CNCC1C2` (single isomer, unassigned) [Example 25], in the test with TNFα (setting [1]), the EC50 came out at 116 nM. The compound further showed an IC50 against IRAK4 enzyme (TR-FRET) of 2 nM.
`CC(C)(O)[C@H](F)CNC(=O)c1cnc(-c2ccc3cc(C#N)cnn23)cc1NC1C2CNCC1C2` (single isomer, unassigned) [Example 26]: in the test with TNFα (TNFα content), the EC50 was found to be 182 nM. Further, the 50% inhibitory concentration (IC50) against IRAK4 enzyme (TR-FRET) stood at 3 nM.
For the compound `CC(C)(O)[C@H](F)CNC(=O)c1cnc(-c2ccc3cc(C#N)cnn23)cc1NC1C2CCC1CNC2` (single isomer, unassigned) [Example 27], the EC50 with TNFα (setting [1]) was determined as 175 nM. At IRAK4 enzyme (TR-FRET), this compound had an IC50 of 2 nM.
For `CC(C)(O)[C@H](F)CNC(=O)c1cnc(-c2ccc3cc(C#N)cnn23)cc1NC1C2CCC1CNC2` (single isomer, unassigned) [Example 28], the EC50 in the test on TNFα (TNFα content) turned out to be 109 nM. Moreover, the IC50 against IRAK4 enzyme (TR-FRET) is less than 1 nM.
In the case of `CC(C)(O)[C@H](F)CNC(=O)c1cnc(-c2ccc3cc(C#N)cnn23)cc1NC1CC1CO` (single isomer, unassigned) [Example 302], the EC50 in the test on TNFα (setting [1]) worked out at 61 nM. For the same compound, at IRAK4 enzyme (TR-FRET), the IC50 was determined as 1 nM.
Regarding `CC(C)(O)[C@H](F)CNC(=O)c1cnc(-c2ccc3cc(C#N)cnn23)cc1NC1CCCC(S(C)(=O)=O)C1` (single isomer, unassigned) [Example 515], the EC50 in the test on TNFα (setting [1]) was found to be 526 nM. Besides, half-maximal inhibition against IRAK4 enzyme (TR-FRET (HTRF)) (IC50) was put at 5 nM.
With `CC(C)(O)[C@H](F)CNC(=O)c1cnc(-c2ccc3cc(C#N)cnn23)cc1NC1CCCC(S(C)(=O)=O)C1` (single isomer, unassigned) [Example 516], the EC50 with TNFα (TNFα content) came out at 595 nM. For the same compound, on IRAK4 enzyme (TR-FRET (HTRF)), 2 nM corresponded to half-maximal inhibition (IC50).
In the case of `CC(C)(O)[C@H](F)CNC(=O)c1cnc(-c2ccc3cc(C#N)cnn23)cc1NC1CCCC(S(C)(=O)=O)C1` (single isomer, unassigned) [Example 517], the 50% effective concentration (EC50) in the test with TNFα (TNFα content) came to 484 nM. At IRAK4 enzyme (TR-FRET (HTRF)), the IC50 was less than 1 nM.
Regarding `CC1(O)CCCC(Nc2cc(-c3ccc4cc(C#N)cnn34)ncc2C(=O)NC[C@@H](F)C(C)(C)O)C1` (single isomer, unassigned) [Example 528], the EC50 in the test on TNFα (setting [1]) amounted to 65 nM. In addition, at IRAK4 enzyme (TR-FRET (HTRF)), the IC50 amounted to 1 nM.
As for `CC1(O)CCCC(Nc2cc(-c3ccc4cc(C#N)cnn34)ncc2C(=O)NC[C@@H](F)C(C)(C)O)C1` (single isomer, unassigned) [Example 529], the EC50 in the test with TNFα (TNFα content) was 62 nM. In addition, on IRAK4 enzyme (TR-FRET (HTRF)), the IC50 was found to be 1 nM.
The corresponding values for `CC(C)(O)[C@H](F)CNC(=O)c1cnc(-c2ccc3cc(C#N)cnn23)cc1NC1CC(Cc2cnco2)C1` (single isomer, unassigned) [Example 638] are 26 nM and less than 1 nM.
As to `CC(C)(O)[C@H](F)CNC(=O)c1cnc(-c2ccc3cc(C#N)cnn23)cc1NC1CC(Cc2cnco2)C1` (single isomer, unassigned) [Example 640], in the test on TNFα (TNFα content), the EC50 came to 117 nM. For the same compound, on IRAK4 enzyme (TR-FRET (HTRF)), the IC50 came out at 1 nM.
As for `Cc1ncc(C2CCC(Nc3cc(-c4ccc5cc(C#N)cnn45)ncc3C(=O)NC[C@@H](F)C(C)(C)O)CC2)o1` (single isomer, unassigned) [Example 645], the EC50 in the test with TNFα (TNFα content) came out at 301 nM. The compound further registered an IC50 at IRAK4 enzyme (TR-FRET (HTRF)) of 10 nM.
Consider `Cc1ncc(C2CCC(Nc3cc(-c4ccc5cc(C#N)cnn45)ncc3C(=O)NC[C@@H](F)C(C)(C)O)CC2)o1` (single isomer, unassigned) [Example 646], for which the EC50 in the test on TNFα (TNFα content) stood at 15 nM. At IRAK4 enzyme (TR-FRET (HTRF)), this compound showed a 50% inhibitory concentration (IC50) of less than 1 nM.
In the case of `CC(C)(O)[C@H](F)CNC(=O)c1cnc(-c2ccc3cc(C#N)cnn23)cc1NC1Cc2ccncc2C1` (single isomer, unassigned) [Example 676], the EC50 in the test with TNFα (setting [1]) turned out to be 81 nM. The compound further had an IC50 against IRAK4 enzyme (TR-FRET (HTRF)) of 1 nM.
Turning to `CC(C)(O)[C@H](F)CNC(=O)c1cnc(-c2ccc3cc(C#N)cnn23)cc1NC1Cc2ccncc2C1` (single isomer, unassigned) [Example 677], the EC50 in the test with TNFα (TNFα content) is 54 nM. Further, at IRAK4 enzyme (TR-FRET (HTRF)), the IC50 was less than 1 nM.
At IRAK4 enzyme (TR-FRET), `CC(C)Nc1cc(-c2ccc3cc(C#N)cnn23)ncc1C(=O)NC1(C)COC1` [Example 35, 6-(3-cyanopyrrolo[1,2-b]pyridazin-7-yl)-4-(isopropyl-amino)-N-(3-methyloxetan-3-yl) nicotinamide] displayed an IC50 of 3 nM.
`CC(C)(O)[C@H](F)CNC(=O)c1cnc(-c2ccc3cc(C#N)cnn23)cc1NC1(CO)CC1` [Example 51, (R)-6-(3-cyanopyrrolo[1,2-b]pyridazin-7-yl)-N-(2-fluoro-3-hydroxy-3-methylbutyl)-4-((1-(hydroxymethyl)cyclopropyl)amino)nicotinamide]: the EC50 in the test with TNFα (setting [1]) came out at 159 nM.
`CC(C)Nc1cc(-c2ccc3cc(C#N)cnn23)ncc1C(=O)NCCC1COC1` [Example 52, 6-(3-cyanopyrrolo[1,2-b]pyridazin-7-yl)-4-(isopropylamino)-N-(2-(oxetan-3-yl)ethyl) nicotinamide]: the EC50 in the test on TNFα (setting [1]) turned out to be 86 nM.
With `CC(C)(O)[C@H](F)CNC(=O)c1cnc(-c2ccc3cc(C#N)cnn23)cc1NC1CC1` [Example 55, (R)-6-(3-cyanopyrrolo[1,2-b]pyridazin-7-yl)-4-(cyclopropylamino)-N-(2-fluoro-3-hydroxy-3-methylbutyl) nicotinamide], the EC50 with TNFα (setting [1]) was 28 nM.
For `CC(C)(O)[C@H](F)CNC(=O)c1cnc(-c2ccc3cc(C#N)cnn23)cc1NCCS(C)(=O)=O` [Example 102, (R)-6-(3-cyanopyrrolo[1,2-b]pyridazin-7-yl)-N-(2-fluoro-3-hydroxy-3-methylbutyl)-4-((2-(methylsulfonyl)ethyl)amino) nicotinamide], in the test on TNFα (setting [1]), the EC50 was 313 nM.
Turning to `CC(C)(O)[C@H](F)CNC(=O)c1cnc(-c2ccc3cc(C#N)cnn23)cc1Nc1nc2ccccc2s1` [Example 377], the EC50 in the test with TNFα (setting [1]) is 426 nM.
Turning to `CNc1cc(-c2ccc3cc(C#N)cnn23)ncc1C(=O)NC[C@@H](F)C(C)(C)O` [Example 379, (R)-6-(3-cyanopyrrolo[1,2-b]pyridazin-7-yl)-N-(2-fluoro-3-hydroxy-3-methylbutyl)-4-(methyl-amino)nicotinamide], the EC50 in the test with TNFα (setting [1]) was found to be 57 nM.
For the compound `N#Cc1cnn2c(-c3cc(N[C@H]4CCC[C@@H](O)C4)c(C(=O)NC4CCC(F)(F)CC4)cn3)ccc2c1` [Example 431, 6-(3-cyanopyrrolo[1,2-b]pyridazin-7-yl)-N-(4,4-difluorocyclohexyl)-4-(((1S,3R)-3-hydroxy-cyclohexyl)amino) nicotinamide], in the test on TNFα (setting [1]), the EC50 is 441 nM.
As to `Cn1cc(Nc2cc(-c3ccc4cc(C#N)cnn34)ncc2C(=O)NC[C@@H](F)C(C)(C)O)ccc1=O` [Example 441, (R)-6-(3-cyanopyrrolo[1,2-b]pyridazin-7-yl)-N-(2-fluoro-3-hydroxy-3-methylbutyl)-4-((1-methyl-6-oxo-1,6-dihydropyridin-3-yl)amino)nicotinamide], in the test with TNFα (setting [1]), the EC50 came to 1300 nM.
Same read-out and setting: with `CC(=O)NCC(F)(F)CNC(=O)c1cnc(-c2ccc3cc(C#N)cnn23)cc1NC(C)C` [Example 551, N-(3-acetamido-2,2-difluoropropyl)-6-(3-cyanopyrrolo[1,2-b]pyridazin-7-yl)-4-(isopropylamino)nicotinamide] the figure was 809 nM; with `CC(C)(O)[C@H](F)CNC(=O)c1cnc(-c2ccc3cc(C#N)cnn23)cc1Nc1cccc(OC(F)(F)F)c1` [Example 607, (R)-6-(3-cyanopyrrolo[1,2-b]pyridazin-7-yl)-N-(2-fluoro-3-hydroxy-3-methylbu1yl)-4-((3-(trifluoromethoxy)phenyl)amino)nicotinamide], 1440 nM.
With `CNC(=O)OC[C@@H]1C[C@H]1Nc1cc(-c2ccc3cc(C#N)cnn23)ncc1C(=O)NC[C@@H](F)C(C)(C)O` [Example 747], in the test on TNFα (setting [1]), the EC50 came out at 169 nM.
Take `CC(C)(O)[C@H](F)CNC(=O)c1cnc(-c2ccc3cc(C#N)cnn23)cc1Nc1ccc(-n2nccn2)cc1` [Example 774, (R)-4-((4-(2H-1,2,3-triazol-2-yl)phenyl)amino)-6-(3-cyanopyrrolo[1,2-b]pyridazin-7-yl)-N-(2-fluoro-3-hydroxy-3-methylbutyl)nicotinamide]: on IRAK4 enzyme (TR-FRET (HTRF)), the IC50 is 2 nM.
On to `CC(C)(O)[C@H](F)CNC(=O)c1cnc(-c2ccc3cc(C#N)cnn23)cc1Nc1cncc(OCC(F)F)c1` [Example 852, (R)-6-(3-cyanopyrrolo[1,2-b]pyridazin-7-yl)-4-((5-(2,2-difluoroethoxy)pyridin-3-yl)amino)-N-(2-fluoro-3-hydroxy-3-methylbutyl) nicotinamide], for which the EC50 in the test on TNFα (Homo sapiens, Monocyte, TNFα by TR-FRET) was 3 nM.
On IRAK4 enzyme (TR-FRET), `CC(C)(O)[C@H](F)CNC(=O)c1cnc(-c2ccc3cc(C#N)cnn23)cc1Nc1cnc(-c2cn[nH]c2)nc1` [Example 969, (R)-4-((2-(1H-pyrazol-4-yl)pyrimidin-5-yl)amino)-6-(3-cyanopyrrolo[1,2-b]pyridazin-7-yl)-N-(2-fluoro-3-hydroxy-3-methyl-butyl)nicotinamide] had an IC50 of less than 1 nM.
As for “(R)-4-((1H-benzo[d][1,2,3] triazol-5-yl)amino)-6-(3- cyanopyrrolo[1,2-b]pyridazin- 7-yl)-N-(2-fluoro-3- hydroxy-3-methylbutyl) nicotinamide [Example 569]”, in the test on TNFα (TNFα content), the EC50 is greater than 10000 nM.
